From article PMC6127842, “Identification of flavonolignans from Silybum marianum seeds as allosteric protein tyrosine phosphatase 1B inhibitors” (Journal of Enzyme Inhibition and Medicinal Chemistry, 2018)

Assays:
[1] = molecular target: T1, PTP1B (human recombinant) (Homo sapiens, UniProt P18031); assay: PTP1B inhibitory activity assay with p-NPP as substrate; type: biochemical; details: for IC50: p-NPP 4 mM, pH 6.0, 37 °C, 30 min, means ± SD, n = 3, NA = no activity >50 μM, read-out: IC50 against PTP1B
T1 construct: purchased Enzo Life Sciences, Inc. (Lausen, Switzerland)
T1 sequence (P18031 1-435): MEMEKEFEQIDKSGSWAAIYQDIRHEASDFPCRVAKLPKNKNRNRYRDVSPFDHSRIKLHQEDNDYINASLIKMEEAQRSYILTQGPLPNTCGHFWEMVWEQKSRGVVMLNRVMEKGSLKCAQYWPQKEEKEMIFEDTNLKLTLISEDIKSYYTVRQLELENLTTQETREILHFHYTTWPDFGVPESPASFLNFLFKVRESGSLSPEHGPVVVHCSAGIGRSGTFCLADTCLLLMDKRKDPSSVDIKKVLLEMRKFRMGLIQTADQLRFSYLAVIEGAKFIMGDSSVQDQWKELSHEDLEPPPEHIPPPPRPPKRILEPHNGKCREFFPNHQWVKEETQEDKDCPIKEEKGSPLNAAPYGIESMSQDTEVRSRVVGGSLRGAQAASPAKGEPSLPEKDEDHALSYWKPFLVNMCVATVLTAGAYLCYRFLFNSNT
Method: (§1) PTP1B inhibitory activity was measured using p-NPP as the substrate. A mixture consisting of p-NPP and PTP1B in a buffer containing 0.06 M citrate (pH 6.0), 0.1 M NaCl, 1 mM EDTA, and 1 mM DTT with or without a tested compound solution (prepared in the above buffer solution containing 30% dimethyl sulfoxide), was incubated at 37 °C for 30 min. The substrate was used at a concentration of 4 mM. The reaction was terminated by adding 20 µL of 10 M NaOH. The reaction mixture was blended by a microplate mixer for 5 min and the amount of produced p-nitrophenol was tested by measuring the absorbance at 405 nm. The blank was measured in the same way except adding a buffer solution instead of the enzyme.

[2] = molecular target: T1, PTP1B (human recombinant); assay: Kinetic analysis of PTP1B inhibition (Lineweaver–Burk, secondary plot); type: biochemical; details: for Inhibition type: Lineweaver–Burk, p-NPP 4, 8, 16 mM; for Ki: secondary plot of Lineweaver–Burk slopes
Method: as §1, with “enzyme. […] All compounds used for bioassay were confirmed the purity >98% by HPLC-PDA and ^1H NMR spectroscopic analyses.” for “enzyme.”
To elucidate the inhibition mode, the inhibition kinetics of compounds 1–5 were analyzed by the Lineweaver–Burk method with various substrate concentrations of p-NPP (4, 8, 16 mM). The initial reaction velocities were measured with and without the inhibitor.
(A) Lineweaver–Burk plots of compounds 1–5. The final concentration of compounds 1–5 was as follows: 1; 0, 1.0, 2.0, and 3.0 μM, 2; 0, 4.0, 6.0, and 8.0 μM, 3; 0, 1.3, 2.5, and 3.0 μM, 4; 0, 1.0, 2.0, and 3.0 μM, and 5; 0, 4.0, 6.0, and 8.0 μM. (B) The second plots of A.

[3] = molecular target: T2, T-cell protein tyrosine phosphatase (TCPTP, human recombinant) (Homo sapiens, UniProt P17706); assay: TCPTP inhibitory activity assay with p-NPP; type: biochemical; details: mean ± SD, three experiments, read-out: Inhibition rate (%) TCPTP
T2 construct: purchased Enzo Life Sciences, Inc. (Lausen, Switzerland)
T2 sequence (P17706 1-415): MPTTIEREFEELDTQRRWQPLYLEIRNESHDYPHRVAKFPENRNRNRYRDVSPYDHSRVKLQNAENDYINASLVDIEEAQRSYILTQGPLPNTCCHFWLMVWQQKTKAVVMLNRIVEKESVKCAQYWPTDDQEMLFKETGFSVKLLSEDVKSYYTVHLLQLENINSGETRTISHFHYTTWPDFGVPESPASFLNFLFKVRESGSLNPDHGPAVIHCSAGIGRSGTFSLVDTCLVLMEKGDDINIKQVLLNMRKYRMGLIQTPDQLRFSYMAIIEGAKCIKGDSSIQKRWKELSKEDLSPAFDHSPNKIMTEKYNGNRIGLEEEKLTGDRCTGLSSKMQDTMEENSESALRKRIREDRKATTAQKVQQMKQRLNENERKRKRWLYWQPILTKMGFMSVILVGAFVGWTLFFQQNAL

[4] = molecular target: T3, Vaccinia H1-related phosphatase (VHR, human recombinant) (Homo sapiens, UniProt P51452); assay: biochemical; details: read-out: Inhibition rate (%) VHR
T3 construct: purchased Enzo Life Sciences, Inc. (Lausen, Switzerland)

[5] = molecular target: T4, SHP-1 (human recombinant) (Homo sapiens, UniProt P29350); assay: SHP-1 inhibitory activity assay with p-NPP; type: biochemical; details: mean ± SD, three experiments, read-out: Inhibition rate (%) SHP-1
T4 construct: purchased Sigma-Aldrich Co., LLC; (St Louis, MO)

[6] = molecular target: T5, SHP-2 (human recombinant) (Homo sapiens, UniProt Q06124); assay: SHP-2 inhibitory activity assay with p-NPP; type: biochemical; details: mean ± SD, three experiments, read-out: Inhibition rate (%) SHP-2
T5 construct: purchased Sigma-Aldrich Co., LLC; (St Louis, MO)
T5 sequence (Q06124 1-593): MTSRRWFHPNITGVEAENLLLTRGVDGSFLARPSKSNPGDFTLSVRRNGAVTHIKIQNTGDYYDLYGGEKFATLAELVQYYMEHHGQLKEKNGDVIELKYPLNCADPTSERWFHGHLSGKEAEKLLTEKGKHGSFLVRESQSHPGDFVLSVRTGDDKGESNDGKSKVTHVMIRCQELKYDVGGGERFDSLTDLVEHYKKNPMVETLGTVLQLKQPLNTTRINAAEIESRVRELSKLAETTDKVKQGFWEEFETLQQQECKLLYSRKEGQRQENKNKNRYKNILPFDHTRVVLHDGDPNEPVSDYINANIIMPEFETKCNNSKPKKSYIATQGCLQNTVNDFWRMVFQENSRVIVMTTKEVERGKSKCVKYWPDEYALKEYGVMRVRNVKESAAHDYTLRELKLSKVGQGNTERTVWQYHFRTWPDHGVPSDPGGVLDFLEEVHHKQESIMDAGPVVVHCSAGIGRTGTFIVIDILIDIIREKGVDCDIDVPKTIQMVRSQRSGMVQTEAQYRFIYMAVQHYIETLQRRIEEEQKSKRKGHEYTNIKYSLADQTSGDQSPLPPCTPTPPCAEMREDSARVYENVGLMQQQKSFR

[7] = mean ± SD, three experiments, read-out: Inhibition rate (%) PTP1B

T4 sequence (P29350 whole entry): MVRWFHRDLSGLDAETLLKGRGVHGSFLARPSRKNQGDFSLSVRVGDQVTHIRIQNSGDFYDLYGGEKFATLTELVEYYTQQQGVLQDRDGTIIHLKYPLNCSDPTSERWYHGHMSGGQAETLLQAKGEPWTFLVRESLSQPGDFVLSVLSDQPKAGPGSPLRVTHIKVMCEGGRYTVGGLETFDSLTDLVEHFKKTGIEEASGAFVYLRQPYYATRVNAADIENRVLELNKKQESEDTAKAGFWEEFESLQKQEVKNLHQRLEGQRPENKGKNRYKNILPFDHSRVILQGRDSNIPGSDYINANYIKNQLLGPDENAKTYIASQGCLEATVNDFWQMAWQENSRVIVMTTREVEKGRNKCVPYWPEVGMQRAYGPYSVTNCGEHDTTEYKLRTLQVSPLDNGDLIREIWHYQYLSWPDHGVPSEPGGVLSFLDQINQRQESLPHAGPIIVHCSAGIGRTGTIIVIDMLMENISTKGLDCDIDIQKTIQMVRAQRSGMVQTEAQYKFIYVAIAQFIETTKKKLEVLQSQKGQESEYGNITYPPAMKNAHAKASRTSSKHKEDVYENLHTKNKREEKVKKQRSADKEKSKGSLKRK
T3 sequence (P51452 whole entry): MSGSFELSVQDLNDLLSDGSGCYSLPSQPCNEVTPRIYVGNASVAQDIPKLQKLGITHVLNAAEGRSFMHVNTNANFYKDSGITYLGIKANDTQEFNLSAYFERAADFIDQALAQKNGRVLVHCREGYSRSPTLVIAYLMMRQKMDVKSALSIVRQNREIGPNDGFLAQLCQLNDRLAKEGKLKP

## COc1cc([C@H]2Oc3ccc([C@H]4Oc5cc(O)cc(O)c5C(=O)[C@@H]4O)cc3O[C@@H]2CO)ccc1O [Compound 3, Isosilybin A]
[1]; 6.0 μM, mean ± SD, three experiments, read-out: Inhibition rate (%) PTP1B
  inhibition at 6 µM: 90.7 ± 1.1%
[1]
  IC50: 2.65 ± 0.13 µM
[2]
  Inhibition type: Non-competitive
  Ki: 2250 nM
[3]; 6.0 μM
  inhibition at 6 µM: 27.5 ± 0.8%
[4]
  inhibition at 6 µM: 59.2 ± 2.4%
[5]; 6.0 μM
  inhibition at 6 µM: 30.6 ± 1.8%
[6]; 6.0 μM
  inhibition at 6 µM: 49 ± 2.1%

## COc1cc(C2C3C=C(c4oc5cc(O)cc(O)c5c(=O)c4O)C4C2COC4(O)C3=O)ccc1O (stereo not shown) [Compound 10, Dehydrosilydianin]
[1]
  IC50: > 50 µM

## COc1cc([C@@H]2Oc3cc([C@H]4Oc5cc(O)cc(O)c5C(=O)[C@@H]4O)ccc3O[C@H]2CO)ccc1O [Compound 2, Silybin B]
[1]; 12 μM, mean ± SD, three experiments, read-out: Inhibition rate (%) PTP1B
  inhibition at 12 µM: 89 ± 2.1%
[1]
  IC50: 5.65 ± 0.2 µM
[2]
  Inhibition type: Non-competitive
  Ki: 4050 nM
[3]; 12 μM
  inhibition at 12 µM: 32.1 ± 2.3%
[4]
  inhibition at 12 µM: 65.6 ± 4.2%
[5]; 12 μM
  inhibition at 12 µM: 34.4 ± 1.9%
[6]; 12 μM
  inhibition at 12 µM: 37.5 ± 2.2%

## COc1cc(C2C(C(=O)O)C=C(C3Oc4cc(O)cc(O)c4C(=O)C3O)C3C(=O)OCC32)ccc1O (stereo not shown) [Compound 11, Silyamandin]
[1]
  IC50: 17.4 ± 0.67 µM

## COc1cc([C@@H]2Oc3c(O)ccc([C@H]4Oc5cc(O)cc(O)c5C(=O)[C@@H]4O)c3[C@H]2CO)ccc1O [Compound 7, Isosilychristin A]
[1]
  IC50: 6.55 ± 0.09 µM

## COc1cc([C@@H]2Oc3ccc([C@H]4Oc5cc(O)cc(O)c5C(=O)[C@@H]4O)cc3O[C@H]2CO)ccc1O [Compound 4, Isosilybin B]
[1]; [7]
  inhibition at 4 µM: 92.1 ± 1.7%
[1]
  IC50: 1.37 ± 0.22 µM
[2]
  Inhibition type: Non-competitive
  Ki: 1030 nM
[3]
  inhibition at 4 µM: 16.4 ± 1.5%
[4]
  inhibition at 4 µM: 61.4 ± 3%
[5]
  inhibition at 4 µM: 22.9 ± 2.1%
[6]
  inhibition at 4 µM: 50.1 ± 1.5%

## COc1cc([C@@H]2Oc3c(O)cc([C@H]4Oc5cc(O)cc(O)c5C(=O)[C@@H]4O)cc3[C@H]2CO)ccc1O [Compound 5, Silychristin A]
[1]; 20 μM, mean ± SD, three experiments, read-out: Inhibition rate (%) PTP1B
  inhibition at 20 µM: 89.2 ± 2.6%
[1]
  IC50: 5.58 ± 0.33 µM
[2]
  Inhibition type: Non-competitive
  Ki: 3950 nM
[3]; 20 μM
  inhibition at 20 µM: 32.2 ± 1.9%
[4]
  inhibition at 20 µM: 67.5 ± 1.4%
[5]; 20 μM
  inhibition at 20 µM: 25.9 ± 1.4%
[6]; 20 μM
  inhibition at 20 µM: 48.6 ± 1.9%

## COc1cc([C@@H]2[C@H]3CO[C@@]4(O)C(=O)[C@@H]2C=C([C@H]2Oc5cc(O)cc(O)c5C(=O)[C@@H]2O)[C@@H]34)ccc1O [Compound 9, Silydianin]
[1]
  IC50: > 50 µM

## COc1cc([C@H]2Oc3c(O)cc([C@H]4Oc5cc(O)cc(O)c5C(=O)[C@@H]4O)cc3[C@@H]2CO)ccc1O [Compound 6, Silychristin B]
[1]
  IC50: 23.9 ± 2.25 µM

## COc1cc([C@H]2Oc3cc([C@H]4Oc5cc(O)cc(O)c5C(=O)[C@@H]4O)ccc3O[C@@H]2CO)ccc1O [Compound 1, Silybin A]
[1]; [7]
  inhibition at 4 µM: 90.3 ± 0.9%
[1]
  IC50: 1.54 ± 0.22 µM
[2]
  Inhibition type: Non-competitive
  Ki: 1250 nM
[3]
  inhibition at 4 µM: 15.7 ± 1.9%
[4]
  inhibition at 4 µM: 60.6 ± 2.2%
[5]
  inhibition at 4 µM: 33.4 ± 0.4%
[6]
  inhibition at 4 µM: 32.7 ± 1.8%

## COc1cc([C@@H]2Oc3c(O)cc(-c4oc5cc(O)cc(O)c5c(=O)c4O)cc3[C@H]2CO)ccc1O [Compound 8, Dehydrosilychristin A]
[1]
  IC50: 7.18 ± 0.12 µM
